Experimental data: patent US20230122344A1, “ANTAGONISTS OF THE MUSCARINIC ACETYLCHOLINE RECEPTOR M4” (Vanderbilt University, priority 2019, published 2023)

Target: T1, Human M4 (Homo sapiens, UniProt P08173)
T1 construct: expressed in transfected cells; host or cells: CHO-K1 (ATCC), co-transfected with chimeric G protein Gqi5
T1 sequence (P08173 1-479): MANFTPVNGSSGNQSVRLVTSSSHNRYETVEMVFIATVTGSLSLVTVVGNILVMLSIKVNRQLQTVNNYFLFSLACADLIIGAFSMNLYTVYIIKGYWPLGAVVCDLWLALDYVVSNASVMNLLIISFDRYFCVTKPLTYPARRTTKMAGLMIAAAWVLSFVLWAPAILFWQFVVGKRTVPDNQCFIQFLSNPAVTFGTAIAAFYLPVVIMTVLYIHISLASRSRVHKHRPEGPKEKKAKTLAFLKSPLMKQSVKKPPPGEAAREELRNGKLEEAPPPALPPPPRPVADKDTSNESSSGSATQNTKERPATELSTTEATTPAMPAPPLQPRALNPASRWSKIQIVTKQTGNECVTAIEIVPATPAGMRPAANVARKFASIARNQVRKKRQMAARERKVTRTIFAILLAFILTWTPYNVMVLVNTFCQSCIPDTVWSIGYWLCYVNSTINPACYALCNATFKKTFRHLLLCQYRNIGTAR
Experiment: mAChR M4 cell-based functional assay (calcium flux, antagonism of EC80 acetylcholine response)
Conditions: M4/Gqi5/CHO-K1 cells; for remaining activity at 30 µM: CHO-K1, % ACh maximum at 30 μM, read-out: Human M4 Emin; for IC50: decrease of response elicited by EC80 acetylcholine
Procedure: Human or rat M4 cDNA, along with the chimeric G protein Gqi5, were transfected into Chinese hamster ovary (CHO-K1) cells purchased from the American Type Culture Collection using Lipofectamine2000. M4/Gqi5/CHO cells were grown in Ham's F-12 medium containing 10% heat-inactivated fetal bovine serum (FBS), 20 mM HEPES, 500 μg/mL G418 sulfate, and 200 μg/mL Hygromycin B.
For high throughput measurement of agonist-evoked increases in intracellular calcium, CHO-K1 cells stably expressing muscarinic receptors were plated in growth medium lacking G418 and hygromycin at 15,000 cells/20 μL/well in Greiner 384-well black-walled, tissue culture (TC)-treated, clear-bottom plates (VWR). Cells were incubated overnight at 37° C. and 5% CO2. The next day, cells were washed using an ELX 405 (BioTek) with assay buffer; the final volume was then aspirated to 20 μL. Next, 20 μL of a 2.3 μM stock of Fluo-4/acetoxymethyl ester (Invitrogen, Carlsbad, Calif.), prepared as a 2.3 mM stock in DMSO and mixed in a 1:1 ratio with 10% (w/v) Pluronic F-127 and diluted in assay buffer, was added to the wells and the cell plates were incubated for 50 min at 37° C. and 5% CO2. Dye was removed by washing with the ELX 405 and the final volume was aspirated to 20 μL. Compound master plates were formatted in a 10 point concentration-response curve (CRC) format (1:3 dilutions) in 100% DMSO with a starting concentration of 10 or 1 mM using a BRAVO liquid handler (Agilent). Test compound CRCs were then transferred to daughter plates (240 nL) using the Echo acoustic plate reformatter (Labcyte, Sunnyvale, Calif.) and then diluted into assay buffer (40 μL) to a 2× stock using a Thermo Fisher Combi (Thermo Fisher Scientific, Waltham, Mass.).
Calcium flux was measured using the Functional Drug Screening System (FDSS) 6000 or 7000 (Hamamatsu Corporation, Tokyo, Japan) as an increase in the fluorescent static ratio. Compounds were applied to cells (20 μL, 2×) using the automated system of the FDSS at 2 seconds into the protocol and the data were collected at 1 Hz. At 143 s, 10 μL of an EC20 concentration of the muscarinic receptor agonist acetylcholine was added (5×), followed by the addition of 12 μL of an EC80 concentration of acetylcholine at the 268 s time point (5×). Agonist activity was analyzed as a concentration-dependent increase in calcium mobilization upon compound addition. Positive allosteric modulator activity was analyzed as a concentration-dependent increase in the EC20 acetylcholine response. Antagonist activity was analyzed as a concentration-dependent decrease in the EC80 acetylcholine response; for the purposes of the tables herein, an IC50 (inhibitory concentration 50) was calculated as a concentration-dependent decrease of the response elicited by an EC80 concentration of acetylcholine. Concentration-response curves were generated using a four-parameter logistical equation in XLFit curve fitting software (IDBS, Bridgewater, N.J.) for Excel (Microsoft, Redmond, Wash.) or Prism (GraphPad Software, Inc., San Diego, Calif.) or the Dotmatics software platform (Dotmatics, Bishop's Stortford, UK).
Compounds were synthesized as described above. Activity (IC50 and Emin) was determined in the mAChR M4 cell-based functional assay as described above and the data are shown in Table 2.

remaining activity at 30 µM [%] | IC50 [nM] | Compound
3 | 2.76 | [2H]C([2H])(C1CCOCC1)N1C[C@H]2C[C@H](Nc3cc(C(F)F)c(-c4cc(F)ccc4C)nn3)C[C@H]2C1 [compound 32, (3aR,5s,6aS)-N-(5-(difluoromethyl)-6-(5-fluoro-2-methylphenyl)pyridazin-3-yl)-2-((tetrahydro-2H-pyran-4-yl)methyl-d2)octahydrocyclopenta[c]pyrrol-5-amine]
3 | 6.4 | [2H]C([2H])(C1CCOCC1)N1C[C@H]2C[C@H](Nc3nnc(-c4cc(F)cc(F)c4F)cc3C3CC3(F)F)C[C@H]2C1 (stereo partly drawn) [compound 33, (3aR,5s,6aS)-N-(4-(2,2-difluorocyclopropyl)-6-(2,3,5-trifluorophenyl)pyridazin-3-yl)-2-((tetrahydro-2H-pyran-4-yl)methyl-d2)octahydrocyclopenta[c]pyrrol-5-amine]
2 | 5.05 | [2H]C([2H])(C1CCOCC1)N1C[C@H]2C[C@H](Nc3nnc(-c4cc(F)cc(F)c4F)cc3C3CC3)C[C@H]2C1 [compound 34, (3aR,5s,6aS)-N-(4-cyclopropyl-6-(2,3,5-trifluorophenyl)pyridazin-3-yl)-2-((tetrahydro-2H-pyran-4-yl)methyl-d2)octahydrocyclopenta[c]pyrrol-5-amine]
3 | 0.5 | Cc1cc(N[C@H]2C[C@@H]3CN(CC4CCOCC4)C[C@@H]3C2)nnc1-c1cc(F)cc(F)c1F [compound 35, (3aR,5s,6aS)-N-(5-methyl-6-(2,3,5-trifluorophenyl)pyridazin-3-yl)-2-((tetrahydro-2H-pyran-4-yl)methyl)octahydrocyclopenta[c]pyrrol-5-amine]
4 | 1030 | [2H]C([2H])(C1CCOCC1)N1C[C@H]2C[C@H](Nc3nnc(-c4cc(F)cc(F)c4F)cc3C(C)(C)C)C[C@H]2C1 [compound 36, (3aR,5s,6aS)-N-(4-(tert-butyl)-6-(2,3,5-trifluorophenyl)pyridazin-3-yl)-2-((tetrahydro-2H-pyran-4-yl)methyl-d2)octahydrocyclopenta[c]pyrrol-5-amine]
3 | 0.69 | [2H]C([2H])(C1CCOCC1)N1C[C@H]2C[C@H](Nc3cc(C)c(-c4cc(F)cc(F)c4F)nn3)C[C@H]2C1 [compound 37, (3aR,5s,6aS)-N-(5-methyl-6-(2,3,5-trifluorophenyl)pyridazin-3-yl)-2-((tetrahydro-2H-pyran-4-yl)methyl-d2)octahydrocyclopenta[c]pyrrol-5-amine]
3 | 46.3 | [2H]C([2H])(C1CCOCC1)N1C[C@H]2C[C@H](Nc3cc(C4(C(F)(F)F)CC4)c(-c4cc(F)c(F)cc4F)nn3)C[C@H]2C1 [compound 38, (3aR,5s,6aS)-2-((tetrahydro-2H-pyran-4-yl)methyl-d2)-N-(5-(1-(trifluoromethyl)cyclopropyl)-6-(2,4,5-trifluorophenyl)pyridazin-3-yl)octahydrocyclopenta[c]pyrrol-5-amine]
3 | 17.9 | [2H]C([2H])(C1CCOCC1)N1C[C@H]2C[C@H](Nc3cc(C4(C(F)(F)F)CC4)c(-c4cc(F)cc(F)c4F)nn3)C[C@H]2C1 [compound 39, (3aR,5s,6aS)-2-((tetrahydro-2H-pyran-4-yl)methyl-d2)-N-(5-(1-(trifluoromethyl)cyclopropyl)-6-(2,3,5-trifluorophenyl)pyridazin-3-yl)octahydrocyclopenta[c]pyrrol-5-amine]
3 | 1.37 | [2H]C([2H])(C1CCOCC1)N1C[C@H]2C[C@H](Nc3cc(C(F)F)c(-c4cc(F)cc(F)c4F)nn3)C[C@H]2C1 [compound 40, (3aR,5s,6aS)-N-(5-(difluoromethyl)-6-(2,3,5-trifluorophenyl)pyridazin-3-yl)-2-((tetrahydro-2H-pyran-4-yl)methyl-d2)octahydrocyclopenta[c]pyrrol-5-amine]
3 | 0.33 | Fc1cc(F)c(F)c(-c2nnc(N[C@H]3C[C@@H]4CN(CC5CCOCC5)C[C@@H]4C3)cc2C(F)F)c1 [compound 41, (3aR,5s,6aS)-N-(5-(difluoromethyl)-6-(2,3,5-trifluorophenyl)pyridazin-3-yl)-2-((tetrahydro-2H-pyran-4-yl)methyl)octahydrocyclopenta[c]pyrrol-5-amine]
2 | 0.67 | COc1ccc(F)cc1-c1nnc(N[C@H]2C[C@@H]3CN(CC4CCOCC4)C[C@@H]3C2)cc1C(F)F [compound 42, (3aR,5s,6aS)-N-(5-(difluoromethyl)-6-(5-fluoro-2-methoxyphenyl)pyridazin-3-yl)-2-((tetrahydro-2H-pyran-4-yl)methyl)octahydrocyclopenta[c]pyrrol-5-amine]
2 | 0.57 | Cc1ccc(F)cc1-c1nnc(N[C@H]2C[C@@H]3CN(CC4CCOCC4)C[C@@H]3C2)cc1C(F)F [compound 43, (3aR,5s,6aS)-N-(5-(difluoromethyl)-6-(5-fluoro-2-methylphenyl)pyridazin-3-yl)-2-((tetrahydro-2H-pyran-4-yl)methyl)octahydrocyclopenta[c]pyrrol-5-amine]
2 | 0.65 | Fc1ccc(Cl)c(-c2nnc(N[C@H]3C[C@@H]4CN(CC5CCOCC5)C[C@@H]4C3)cc2C(F)F)c1 [compound 44, (3aR,5s,6aS)-N-(6-(2-chloro-5-fluorophenyl)-5-(difluoromethyl)pyridazin-3-yl)-2-((tetrahydro-2H-pyran-4-yl)methyl)octahydrocyclopenta[c]pyrrol-5-amine]
3 | 54.4 | [2H]C([2H])(C1CCOCC1)N1C[C@H]2C[C@H](Nc3nnc(-c4cc(F)cc(F)c4F)cc3C(C)(F)F)C[C@H]2C1 [compound 45, (3aR,5s,6aS)-N-(4-(1,1-difluoroethyl)-6-(2,3,5-trifluorophenyl)pyridazin-3-yl)-2-((tetrahydro-2H-pyran-4-yl)methyl-d2)octahydrocyclopenta[c]pyrrol-5-amine]
2 | 34.8 | CC(c1ccccn1)N1C[C@H]2C[C@H](Nc3cc(C(F)F)c(-c4cc(F)cc(F)c4F)nn3)C[C@H]2C1 (stereo partly drawn) [compound 50, (3aR,5s,6aS)-N-(5-(difluoromethyl)-6-(2,3,5-trifluorophenyl)pyridazin-3-yl)-2-(1-(pyridin-2-yl)ethyl)octahydrocyclopenta[c]pyrrol-5-amine]
2 | 35 | [2H]C(C)(c1ccccn1)N1C[C@H]2C[C@H](Nc3cc(C(F)F)c(-c4cc(F)cc(F)c4F)nn3)C[C@H]2C1 (stereo partly drawn) [compound 51, (3aR,5s,6aS)-N-(5-(difluoromethyl)-6-(2,3,5-trifluorophenyl)pyridazin-3-yl)-2-(1-(pyridin-2-yl)ethyl-1-d)octahydrocyclopenta[c]pyrrol-5-amine]
